Where “and” joins values, the source holds several entries; their conditions need not be identical. Identical values can stand only once. Inconclusive results and toxic doses are left out.
System: L1210 leukemia ip in BDF1 mice, survival T/C
Assay: NCI In Vivo Anticancer Drug Screen. Data for tumor model L1210 Leukemia (intraperitoneal) in B6D2F1 (BDF1) mice
Settings: endpoint: mean survival time, higher = longer survival
Method in brief: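 Transplanted-tumor mice were given test agent; controls received vehicle only. Survival readings from the two groups were divided (treated over control).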

[1] = dose: 100.0 mg/kg/injection, schedule: Q01DX009 (ip), vehicle: Klucel (hydroxypropylcellulose) (HPC)
[2] = dose: 200.0 mg/kg/injection, schedule: Q01DX009 (ip), vehicle: Klucel (hydroxypropylcellulose) (HPC)
[3] = dose: 400.0 mg/kg/injection, schedule: Q01DX009 (ip), vehicle: Klucel (hydroxypropylcellulose) (HPC)
[4] = dose: 100.0 mg/kg/injection, schedule: Q01DX009 (ip), vehicle: saline
[5] = dose: 100.0 mg/kg/injection, schedule: Q04DX003 (ip), vehicle: saline
[6] = dose: 200.0 mg/kg/injection, schedule: Q04DX003 (ip), vehicle: saline
[7] = dose: 100.0 mg/kg/injection, schedule: Q01DX001 (ip), vehicle: Klucel (hydroxypropylcellulose) (HPC)
[8] = dose: 200.0 mg/kg/injection, schedule: Q01DX001 (ip), vehicle: Klucel (hydroxypropylcellulose) (HPC)
[9] = dose: 100.0 mg/kg/injection, schedule: Q01DX001 (ip), vehicle: carboxymethylcellulose (CMC)
[10] = dose: 200.0 mg/kg/injection, schedule: Q01DX001 (ip), vehicle: carboxymethylcellulose (CMC)
[11] = dose: 400.0 mg/kg/injection, schedule: Q01DX001 (ip), vehicle: carboxymethylcellulose (CMC)
[12] = dose: 100.0 mg/kg/injection, schedule: Q01DX009 (ip), vehicle: saline with Tween-80
[13] = dose: 100.0 mg/kg/injection, schedule: Q04DX003 (ip), vehicle: saline with Tween-80
[14] = dose: 200.0 mg/kg/injection, schedule: Q04DX003 (ip), vehicle: saline with Tween-80
[15] = dose: 400.0 mg/kg/injection, schedule: Q04DX003 (ip), vehicle: saline with Tween-80
[16] = dose: 100.0 mg/kg/injection, schedule: Q01DX001 (ip), vehicle: saline with Tween-80
[17] = dose: 200.0 mg/kg/injection, schedule: Q01DX001 (ip), vehicle: saline with Tween-80
[18] = dose: 100.0 mg/kg/injection, schedule: Q01DX001 (ip), vehicle: saline
[19] = dose: 200.0 mg/kg/injection, schedule: Q01DX001 (ip), vehicle: saline
[20] = dose: 400.0 mg/kg/injection, schedule: Q01DX001 (ip), vehicle: saline
[21] = dose: 200.0 mg/kg/injection, schedule: Q04DX003 (ip), vehicle: Klucel (hydroxypropylcellulose) (HPC)
[22] = dose: 400.0 mg/kg/injection, schedule: Q04DX003 (ip), vehicle: Klucel (hydroxypropylcellulose) (HPC)

Compound: Cc1ccc(NC(=O)Nc2ccccc2F)cc1Cl
- T/C [1]: 111 % of control
- T/C [2]: 97 % of control
- T/C [3]: 92 % of control

Compound: COc1ccc(CCl)cc1C(=O)O
- T/C (dose: 75.0 mg/kg/injection, schedule: Q01DX001 (ip), vehicle: saline): 86 % of control
- T/C (dose: 150.0 mg/kg/injection, schedule: Q01DX001 (ip), vehicle: saline): 91 % of control

Compound: CCN1C(=O)CC2(CCN(C)CC2)C1=O
- T/C (dose: 0.78 mg/kg/injection, schedule: Q01DX009 (ip), vehicle: saline): 98 % of control
- T/C (dose: 1.56 mg/kg/injection, schedule: Q01DX009 (ip), vehicle: saline): 102 % of control
- T/C (dose: 3.12 mg/kg/injection, schedule: Q01DX009 (ip), vehicle: saline): 95 % of control
- T/C (dose: 6.25 mg/kg/injection, schedule: Q01DX009 (ip), vehicle: saline): 117 % of control
- T/C (dose: 12.5 mg/kg/injection, schedule: Q01DX009 (ip), vehicle: saline): 117 % of control
- T/C (dose: 25.0 mg/kg/injection, schedule: Q01DX009 (ip), vehicle: saline): 98 % of control
- T/C (dose: 25.0 mg/kg/injection, schedule: Q04DX003 (ip), vehicle: saline): 113 % of control
- T/C (dose: 50.0 mg/kg/injection, schedule: Q01DX009 (ip), vehicle: saline): 104 % of control and 113 % of control
- T/C (dose: 50.0 mg/kg/injection, schedule: Q04DX003 (ip), vehicle: saline): 115 % of control
- T/C [4]: 93 % of control and 100 % of control
- T/C [5]: 105 % of control
- T/C [6]: 112 % of control
- T/C (dose: 400.0 mg/kg/injection, schedule: Q01DX009 (ip), vehicle: saline): 93 % of control
- T/C (dose: 400.0 mg/kg/injection, schedule: Q04DX003 (ip), vehicle: saline): 109 % of control

Compound: CNc1ncnc(Cl)c1N
- T/C [7]: 103 % of control
- T/C [8]: 107 % of control

Compound: Cc1nc(N)c2c(n1)C(Cc1ccccc1)N(C(=O)c1ccccc1)C2 (stereo not drawn)
- T/C [9]: 97 % of control
- T/C [10]: 97 % of control
- T/C [11]: 103 % of control

Compound: CCOC(=O)n1ccn2cncc2c1=O
- T/C [12]: 86 % of control
- T/C [13]: 95 % of control
- T/C [14]: 101 % of control
- T/C [15]: 95 % of control

Compound: C(=Nc1ccccc1)c1ccccc1
- T/C (dose: 50.0 mg/kg/injection, schedule: Q01DX001 (ip), vehicle: carboxymethylcellulose (CMC)): 98 % of control
- T/C [9]: 96 % of control
- T/C [4]: 98 % of control
- T/C [5]: 104 % of control
- T/C [10]: 91 % of control
- T/C (dose: 200.0 mg/kg/injection, schedule: Q01DX009 (ip), vehicle: saline): 100 % of control
- T/C [6]: 105 % of control
- T/C [11]: 91 % of control

Compound: O=S(=O)(O/N=C1\N=C(NOS(=O)(=O)c2ccccc2)c2ccccc21)c1ccccc1
- T/C [16]: 87 % of control and 92 % of control
- T/C (dose: 100.0 mg/kg/injection, schedule: Q04DX002 (ip), vehicle: saline with Tween-80): 102 % of control and 90 % of control
- T/C [13]: 101 % of control
- T/C [17]: 97 % of control and 91 % of control
- T/C (dose: 200.0 mg/kg/injection, schedule: Q04DX002 (ip), vehicle: saline with Tween-80): 98 % of control and 92 % of control
- T/C [14]: 94 % of control
- T/C (dose: 400.0 mg/kg/injection, schedule: Q01DX001 (ip), vehicle: saline with Tween-80): 87 % of control and 92 % of control
- T/C (dose: 400.0 mg/kg/injection, schedule: Q04DX002 (ip), vehicle: saline with Tween-80): 112 % of control and 87 % of control
- T/C [15]: 92 % of control

Compound: NC(=O)OCC(O)COc1ccc(Cl)cc1 (stereo not drawn)
- T/C [18]: 95 % of control
- T/C [19]: 97 % of control
- T/C [20]: 95 % of control

Compound: O=C(O)c1c(Cl)c(-c2c(Cl)c(C(=O)O)c(Cl)c([N+](=O)[O-])c2Cl)c(Cl)c([N+](=O)[O-])c1Cl
- T/C [12]: 96 % of control
- T/C (dose: 200.0 mg/kg/injection, schedule: Q01DX009 (ip), vehicle: saline with Tween-80): 96 % of control
- T/C (dose: 400.0 mg/kg/injection, schedule: Q01DX009 (ip), vehicle: saline with Tween-80): 93 % of control

Compound: Cc1ccc(N=CNN=C(N)N)cc1
- T/C (dose: 120.0 mg/kg/injection, schedule: Q01DX Z (oral), vehicle: methylcellulose (MC)): 97 % of control
- T/C (dose: 240.0 mg/kg/injection, schedule: Q01DX Z (ip), vehicle: methylcellulose (MC)): 101 % of control
- T/C (dose: 240.0 mg/kg/injection, schedule: Q01DX Z (oral), vehicle: methylcellulose (MC)): 96 % of control
- T/C (dose: 360.0 mg/kg/injection, schedule: Q01DX Z (ip), vehicle: methylcellulose (MC)): 104 % of control
- T/C (dose: 480.0 mg/kg/injection, schedule: Q01DX Z (ip), vehicle: methylcellulose (MC)): 102 % of control
- T/C (dose: 480.0 mg/kg/injection, schedule: Q01DX Z (oral), vehicle: methylcellulose (MC)): 92 % of control

Compound: N#CC1=C(C#N)C(=O)C(c2ccccc2)=C(c2ccccc2)C1=O
- T/C (dose: 5.0 mg/kg/injection, schedule: Q01DX001 (ip), vehicle: saline): 97 % of control
- T/C (dose: 10.0 mg/kg/injection, schedule: Q01DX001 (ip), vehicle: saline): 97 % of control
- T/C (dose: 20.0 mg/kg/injection, schedule: Q01DX001 (ip), vehicle: saline): 101 % of control

Compound: O=C1/C(=C\c2ccccc2)Sc2cc[nH]c21
- T/C [7]: 96 % of control
- T/C [8]: 105 % of control
- T/C (dose: 400.0 mg/kg/injection, schedule: Q01DX001 (ip), vehicle: Klucel (hydroxypropylcellulose) (HPC)): 96 % of control

Compound: N#Cc1c(-c2ccc(Cl)cc2)n(O)c2ccccc12
- T/C [18]: 96 % of control
- T/C [19]: 100 % of control
- T/C [20]: 96 % of control

Compound: Cc1cc2oc(/C=C(\C#N)c3ccc([N+](=O)[O-])cc3)c(C)c2cc1C
- T/C [1]: 88 % of control
- T/C (dose: 100.0 mg/kg/injection, schedule: Q04DX003 (ip), vehicle: Klucel (hydroxypropylcellulose) (HPC)): 98 % of control
- T/C [2]: 103 % of control
- T/C [21]: 95 % of control
- T/C [3]: 99 % of control
- T/C [22]: 98 % of control

Compound: O=P1(NCCCl)OCCC(O)N1CCCl (stereo not drawn)
- T/C (dose: 100.0 mg/kg/injection, schedule: Q01DX001 (ip), vehicle: DMSO): 242 % of control
- T/C (dose: 200.0 mg/kg/injection, schedule: Q01DX001 (ip), vehicle: DMSO): 284 % of control
- T/C (dose: 400.0 mg/kg/injection, schedule: Q01DX001 (ip), vehicle: DMSO): 273 % of control

Compound: COC(=O)C1=C2Nc3ccccc3C23CCN2CC4(CC5CC67CCOC6CCN6CCC8(c9cccc(OC)c9N(C4)C58O)C67)C4OCCC4(C1)C23 (stereo not drawn)
- T/C [21]: 88 % of control
- T/C [22]: 93 % of control

Compound: CCOC(=O)c1ccc(N)cc1
- T/C (dose: 37.5 mg/kg/injection, schedule: Q01DX009 (ip), vehicle: saline with Tween-80): 107 % of control
- T/C (dose: 50.0 mg/kg/injection, schedule: Q01DX001 (ip), vehicle: saline with Tween-80): 97 % of control
- T/C (dose: 75.0 mg/kg/injection, schedule: Q01DX009 (ip), vehicle: saline with Tween-80): 107 % of control
- T/C [16]: 105 % of control
- T/C (dose: 150.0 mg/kg/injection, schedule: Q01DX009 (ip), vehicle: saline with Tween-80): 91 % of control
- T/C [17]: 94 % of control

Compound: CC(C)(O)C1C2OC(=O)C1C1(O)CC3OC34C(=O)OC2C14C (stereo not drawn)
- T/C (dose: 12.5 mg/kg/injection, schedule: Q04DX003 (ip), vehicle: Klucel (hydroxypropylcellulose) (HPC)): 100 % of control
- T/C (dose: 25.0 mg/kg/injection, schedule: Q04DX003 (ip), vehicle: Klucel (hydroxypropylcellulose) (HPC)): 100 % of control
- T/C (dose: 50.0 mg/kg/injection, schedule: Q04DX003 (ip), vehicle: Klucel (hydroxypropylcellulose) (HPC)): 100 % of control
- T/C (dose: 75.0 mg/kg/injection, schedule: Q01DX001 (ip), vehicle: other): 102 % of control
- T/C (dose: 150.0 mg/kg/injection, schedule: Q01DX001 (ip), vehicle: other): 109 % of control

Reference: PubChem BioAssay AID248 (DTP/NCI, 2004)
